Tests used:
[1] = target: T1, GR (TAT induction in HepG2 cells) (Homo sapiens, UniProt P04150); assay: cell-based; conditions: read-out: GR functional Ki
T1 construct: host or cells: HepG2 (human hepatocellular carcinoma)
T1 sequence (P04150 1-777): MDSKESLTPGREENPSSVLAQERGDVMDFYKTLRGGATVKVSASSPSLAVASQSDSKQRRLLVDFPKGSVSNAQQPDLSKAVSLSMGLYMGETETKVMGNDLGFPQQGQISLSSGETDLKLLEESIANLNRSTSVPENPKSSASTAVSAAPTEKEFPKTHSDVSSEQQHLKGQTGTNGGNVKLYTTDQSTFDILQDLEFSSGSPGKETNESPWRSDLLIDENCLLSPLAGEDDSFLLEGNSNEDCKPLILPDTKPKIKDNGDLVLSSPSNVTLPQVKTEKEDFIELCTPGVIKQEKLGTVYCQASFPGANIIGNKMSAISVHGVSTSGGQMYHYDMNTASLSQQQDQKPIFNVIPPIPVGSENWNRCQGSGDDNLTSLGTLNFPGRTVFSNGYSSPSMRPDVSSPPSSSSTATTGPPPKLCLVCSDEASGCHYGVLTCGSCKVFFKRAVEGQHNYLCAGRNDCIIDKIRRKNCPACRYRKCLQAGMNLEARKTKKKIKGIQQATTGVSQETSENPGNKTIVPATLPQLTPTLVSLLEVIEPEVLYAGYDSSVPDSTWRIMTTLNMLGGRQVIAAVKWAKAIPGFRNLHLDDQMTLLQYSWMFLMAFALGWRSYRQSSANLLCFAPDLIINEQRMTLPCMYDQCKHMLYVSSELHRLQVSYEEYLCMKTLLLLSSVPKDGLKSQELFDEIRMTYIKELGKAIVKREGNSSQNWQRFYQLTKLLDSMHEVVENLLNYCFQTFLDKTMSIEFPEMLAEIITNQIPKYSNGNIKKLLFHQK
Procedure: Glucocorticoid mediated activation of TAT occurs by transactivation of glucocorticoid response elements in the TAT promoter by glucocorticoid receptor-agonist complex.
TAT activity was measured as outlined in the literature by A. Ali et al., J. Med. Chem., 2004, 47, 2441-2452.
HepG2 cells were cultured using MEME media supplemented with 10% (v/v) foetal bovine serum; 2 mM L-glutamine and 1% (v/v) NEAA at 37° C., 5%/95% (v/v) CO2/air. The HepG2 cells were counted and adjusted to yield a density of 0.125×10^6 cells/ml in RPMI 1640 without phenol red, 10% (v/v) charcoal stripped FBS, 2 mM L-glutamine and seeded at 25,000 cells/well in 200 μl into 96 well, sterile, tissue culture micro titre plates, and incubated at 37° C., 5% CO2 for 24 hours
Growth media was removed and replaced with assay media {RPMI 1640 without phenol red, 2 mM L-glutamine+10 μM forskolin}. […] Compounds were serially half log diluted in 100% (v/v) dimethylsupfoxide from a 10 mM stock.
HepG2 cells were then lysed with 30 μl of cell lysis buffer containing a protease inhibitor cocktail for 15 minutes at 4° C. 155 μl of substrate mixture was then added containing 5.4 mM Tyrosine sodium salt, 10.8 mM alpha ketoglutarate and 0.06 mM pyridoxal 5′ phosphate in 0.1M potassium phosphate buffer (pH 7.4). After 2 hours incubation at 37° C. the reaction was terminated by the addition of 15 μl of 10M aqueous potassium hydroxide solution, and the plates incubated for a further 30 minutes at 37° C. The TAT activity product was measured by absorbance at λ 340 nm.
[compound] and fitting the data to a 4 parameter logistic equation.

human recombinant GR = target: T2, human recombinant GR (Homo sapiens, UniProt P04150); assay: Human GR fluorescence polarisation (FP) binding assay (Example 23)
T2 construct: purchased PanVera P2812
T2 sequence (P04150 1-777): T1 sequence (P04150 1-777)
Procedure: The following is a description of a FP assay for measuring compound inhibition of labelled glucocorticoid binding to the human recombinant GR.
The binding affinity of test compounds was determined using a FP binding assay using human recombinant GR (PanVera P2812) and a fluorescent labelled glucocorticoid ligand (Fluorome GS Red) (PanVera P2894). The presence of inhibitors prevents the formation of a GS Red/GR complex resulting in a decrease in the measured polarisation value. The change in polarisation value in the presence of test compounds is used to calculate the binding affinity of the compound for GR.
This assay was performed in 384 well, black, round-bottom, polypropylene micro titre plates in a final volume of 20 μl. The assay contained 5 μl 1 nM GR (final concentration), 5 μl 0.5 nM Fluorome GS Red (final concentration) in the presence of 10 μl test compounds. Positive control wells (high polarisation) receive, 10 μl 2% (v:v) DMSO vehicle (1% (v/v) final concentration)+5 μl 1 nM GR and 5 μl 0.5 nM Fluorome GS Red. […] Assay blank background wells (used for normalisation) receive 15 μl 1×GS screening buffer+5 μl GR.
For the IC50 determination (concentration of compound that displaces 50% of the bound GS Red), compounds were tested at eight different concentrations in duplicate in two independently performed experiments. Compounds were prepared as solubilised solids at 10 mM in DMSO. On the day of assay, an 8 point half-log serial dilution (55 μl DMSO+25 μl compound solution) was prepared. A 1:50 dilution (1 μl compound solution+49 μl 1×GR screening buffer) was prepared for each compound. The compounds were prepared at 2× final assay concentration.
The plates were mixed and incubated for 4 hour at room temperature. FP was measured using an Envision Excite plate reader with 535 nm excitation and 590 nm emission interference filters.
Milli-polarisation (mP) values were calculated using the below equation—
where S and P are assay blank background subtracted fluorescence units, G=G-factor (1.07).
Compound IC50 values were calculated by plotting a [compound] v. % inhibition curve and fitting the data to a 4-parameter logistic fit equation.
Reagents. 10×GR screening buffer (100 mM potassium phosphate pH 7.4, 200 mM Na2MoO4, 1 mM EDTA, 20% (v/v) DMSO). To prepare 1×GR screening buffer, combine 1 ml 10×GR screening buffer (PanVera P2814)+1 ml stabilising peptide (PanVera P2815)+7.95 ml 4° C. MQ water. Add 50 μl 1M DTT, vortex and place on ice until use.

Row | Compound | Ki [1] [nM] | Ki (human recombinant GR) [nM]
1 | COC[C@]12Cc3cnn(-c4ccc(F)cc4)c3C=C1CCN(S(=O)(=O)c1ccc(N3CCC(C)(C)C3)cc1)C2 [Example 21, (R)-1-(4-Fluoro-phenyl)-6-[4-(3,3-dimethylpyrrolidin-1-yl)-benzenesulfonyl]-4a-methoxymethyl-4,4a,5,6,7,8-hexahydro-1H-1,2,6-triaza-cyclopenta[b]naphthalene] | > 100 | < 0.5
2 | COC[C@]12Cc3cnn(-c4ccc(F)cc4)c3C=C1CCN(S(=O)(=O)c1ccc(N3CCC[C@H]3C)cc1)C2 [Example 17, (R)-1-(4-Fluoro-phenyl)-6-[4-((R)-2-methylpyrrolidin-1-yl)-benzenesulfonyl]-4a-methoxymethyl-4,4a,5,6,7,8-hexahydro-1H-1,2,6-triaza-cyclopenta[b]naphthalene] | > 100 | < 0.5
3 | COC[C@]12Cc3cnn(-c4ccc(F)cc4)c3C=C1CCN(S(=O)(=O)c1ccc(N3CCC(F)(F)C3)cc1)C2 [Example 16, (R)-1-(4-Fluoro-phenyl)-6-[4-(3,3-difluoropyrrolidin-1-yl)-benzenesulfonyl]-4a-methoxymethyl-4,4a,5,6,7,8-hexahydro-1H-1,2,6-triaza-cyclopenta[b]naphthalene] | > 100 | < 0.5
4 | COC[C@]12Cc3cnn(-c4ccc(F)cc4)c3C=C1CCN(S(=O)(=O)c1ccc(N3CCCCC3)cc1)C2 [Example 20, (R)-1-(4-Fluoro-phenyl)-6-[4-(piperidin-1-yl)-benzenesulfonyl]-4a-methoxymethyl-4,4a,5,6,7,8-hexahydro-1H-1,2,6-triaza-cyclopenta[b]naphthalene] | 50 to 100 | < 0.5
5 | COC[C@]12Cc3cnn(-c4ccc(F)cc4)c3C=C1CCN(S(=O)(=O)c1ccc(N3CC[C@H](OC)C3)cc1)C2 [Example 19, (R)-1-(4-Fluoro-phenyl)-6-[4-((S)-3-methoxypyrrolidin-1-yl)-benzenesulfonyl]-4a-methoxymethyl-4,4a,5,6,7,8-hexahydro-1H-1,2,6-triaza-cyclopenta[b]naphthalene] | > 100 | < 0.5
6 | COC[C@@H]1CCCN1c1ccc(S(=O)(=O)N2CCC3=Cc4c(cnn4-c4ccc(F)cc4)C[C@]3(COC)C2)cc1 [Example 18, (R)-1-(4-Fluoro-phenyl)-6-[4-((S)-2-(methoxymethyl)pyrrolidin-1-yl)-benzenesulfonyl]-4a-methoxymethyl-4,4a,5,6,7,8-hexahydro-1H-1,2,6-triaza-cyclopenta[b]naphthalene] | 50 to 100 | 0.5 to 1

Reference: patent publication US20130225633A1, “PHENYL HETEROCYCLOALKYL GLUCOCORTICOID RECEPTOR MODULATORS” (Corcept Therapeutics, Inc., priority 2012, published 2013)
